Measured values published in patent publication US11154529B2, “Phosphaplatin liquid formulations” (Phosplatin Therapeutics Inc., priority 2016, dated 2021).

Experiment: Ready-to-use formulation stability at 2-8° C., 5 mg/mL (R,R)-pyrodach-2 in 10 mM Potassium Phosphate Buffer at pH 7.2, 10 mL vials
Type: physicochemical
Description: A scalable and commercially viable process for the manufacture of a ready-to-use formulation of (R,R)-pyrodach-2 in 10 mM buffer adjusted to a pH of 7.0-7.5 comprises the steps of: a) preparing a 10 mM aqueous solution of buffer; b) adding sufficient hydroxide base to effect neutralization of the added (R,R)-pyrodach-2 to reach a pH of about 7; c) adding (R,R)-pyrodach-2 and allowing it to dissolve; d) if necessary adding additional hydroxide to adjust the pH into a range of about 7.0-7.5; and e) filtering the solution under sterile conditions, filling the solution into glass vials, and covering it with a stopper and/or a cap. Stability data on two large batches of 5 mg/mL (R,R)-pyrodach-2 in 10 mM potassium phosphate buffer were generated. One such batch at pH=7.2 was evaluated at both 25° C./60% RH and refrigerated (2-8° C.) conditions, with data summarized in Table 4 and Table 5, respectively. […] Similar observations have been made for the ready-to-use liquid formulation at pH7.4, as illustrated in Table 6 and Table 7.
• Transfer 4564.6 mg±0.5 mg of potassium phosphate dibasic, trihydrate to a 2-L volumetric flask. • Fill flask to approximately 75% volume with water, swirl as needed to dissolve all solids. • Volumetrically transfer 32.0 mL of 1N KOH to flask. • Dilute flask to volume with water and mix well. • Record pH of final solution. This is the diluent. • Transfer 7653.1 mg±0.5 mg of (R,R)-pyrodach-2 to a compounding vessel. • Transfer 1500 mL of the diluent to the vessel and stir to dissolve solids. • Record pH of final solution. • Pass entire solution through a 0.22 μm sterile filter membrane into a sterile collection vessel. • Calculate (R,R)-pyrodach-2 solution concentration
To a […] glass beaker equipped with mechanical mixer was add 24645.5 g of sterile water for injection. With agitation 47.03 gm of dibasic potassium phosphate USP was added and the solids allowed to dissolve. To the stirred solution was added 253.8 gm of 1.00 N potassium hydroxide. Sterile water for injection USP (900.0 gm) was used as a rinse to facilitate both additions. With vigorous agitation, (R,R)-pyrodach-2 (201.87 gm) was slowly added and agitation continued until all of the solids dissolved. Sterile water for injection USP (900.0 gm) was used as a rinse to facilitate the addition. The pH was determined to be 6.7. A total of 85 mL of 1.00 N potassium hydroxide was added in 5.0 mL aliquots to adjust the pH to 7.3. The solution was sterile filtered through 0.22μ Millipore Millipack filter and aseptically filled, 10 ml top a vial in 10 mL in 10 cc Wheaton clear molded vails, stoppered with a 20 mm stopper and crimp seal capped.

O=P1(O)OP(=O)(O)[O][Pt]2([NH][C@@H]3CCCC[C@H]3[NH]2)[O]1 (stereo partly drawn) [(R,R)-pyrodach-2, (R,R)-trans-1,2-cyclohexanediamine-(dihydrogenpyrophosphato)platinum(II)]
(DACH) Pt-diaquo (~RRT 0.3) (1 Month): 0.17% | (DACH) Pt-monoaquo (~RRT 0.7) (1 Month): 0.84% | Assay (Potency) (1 Month): 97.7% | PT-112 Dimer (~RRT 4.0) (1 Month): 0.21% | RRT 0.56 (1 Month): 0.11% | Total Related Substances (1 Month): 1% | pH (1 Month): 7.2 | (DACH) Pt-diaquo (~RRT 0.3) (2 Month): 0.09% | (DACH) Pt-monoaquo (~RRT 0.7) (2 Month): 0.91% | Assay (Potency) (2 Month): 100.1% | PT-112 Dimer (~RRT 4.0) (2 Month): 0.25% | RRT 0.56 (2 Month): 0.10% | RRT 0.68 (2 Month): 0.06% | Total Related Substances (2 Month): 1% | pH (2 Month): 7.2 | (DACH) Pt-diaquo (~RRT 0.3) (3 Month): 0.18% | (DACH) Pt-monoaquo (~RRT 0.7) (3 Month): 0.82% | Assay (Potency) (3 Month): 98.2% | PT-112 Dimer (~RRT 4.0) (3 Month): 0.31% | RRT 0.56 (3 Month): 0.12% | RRT 0.68 (3 Month): 0.05% | RRT 3.1-3.2 (3 Month): 0.08% | Total Related Substances (3 Month): 2% | pH (3 Month): 7.2 | (DACH) Pt-diaquo (~RRT 0.3) (4 Month): 0.13% | (DACH) Pt-monoaquo (~RRT 0.7) (4 Month): 0.88% | Assay (Potency) (4 Month): 98.6% | PT-112 Dimer (~RRT 4.0) (4 Month): 0.27% | RRT 0.50 (4 Month): 0.05% | RRT 0.56 (4 Month): 0.13% | RRT 3.1-3.2 (4 Month): 0.07% | Total Related Substances (4 Month): 2% | pH (4 Month): 7.3 | (DACH) Pt-diaquo (~RRT 0.3) (6 Month): 0.18% | (DACH) Pt-monoaquo (~RRT 0.7) (6 Month): 0.91% | Assay (Potency) (6 Month): 98.4% | PT-112 Dimer (~RRT 4.0) (6 Month): 0.28% | RRT 0.56 (6 Month): 0.12% | RRT 0.68 (6 Month): 0.05% | RRT 3.1-3.2 (6 Month): 0.10% | Total Related Substances (6 Month): 2% | pH (6 Month): 7.3 | Particulate Matter (Light Obscuration) (6 Month, first value): 150 particles per container | Particulate Matter (Light Obscuration) (6 Month, second value): 8 particles particles per container | (DACH) Pt-diaquo (~RRT 0.3) (9 Month): 0.14% | (DACH) Pt-monoaquo (~RRT 0.7) (9 Month): 1.05% | Assay (Potency) (9 Month): 97.8% | PT-112 Dimer (~RRT 4.0) (9 Month): 0.29% | RRT 0.56 (9 Month): 0.16% | RRT 0.68 (9 Month): 0.06% | RRT 3.1-3.2 (9 Month): 0.10% | Total Related Substances (9 Month): 2% | pH (9 Month): 7.2 | (DACH) Pt-diaquo (~RRT 0.3) (12 Month): 0.20% | (DACH) Pt-monoaquo (~RRT 0.7) (12 Month): 1.02% | Assay (Potency) (12 Month): 97.8% | PT-112 Dimer (~RRT 4.0) (12 Month): 0.29% | RRT 0.50 (12 Month): 0.06% | RRT 0.56 (12 Month): 0.16% | RRT 0.68 (12 Month): 0.10% | RRT 3.1-3.2 (12 Month): 0.16% | Total Related Substances (12 Month): 2% | pH (12 Month): 7.2 | Particulate Matter (Light Obscuration) (12 Month, first value): 236 particles per container | Particulate Matter (Light Obscuration) (12 Month, second value): 4 particles particles per container | (DACH) Pt-diaquo (~RRT 0.3) (15 Month): 0.15% | (DACH) Pt-monoaquo (~RRT 0.7) (15 Month): 0.92% | Assay (Potency) (15 Month): 98.7% | PT-112 Dimer (~RRT 4.0) (15 Month): 0.29% | RRT 0.50 (15 Month): 0.07% | RRT 0.56 (15 Month): 0.19% | RRT 0.68 (15 Month): 0.06% | RRT 3.1-3.2 (15 Month): 0.22% | Total Related Substances (15 Month): 2% | pH (15 Month): 7.2 | (DACH) Pt-diaquo (~RRT 0.3) (18 Month): 0.15% | (DACH) Pt-monoaquo (~RRT 0.7) (18 Month): 0.93% | Assay (Potency) (18 Month): 100.3% | PT-112 Dimer (~RRT 4.0) (18 Month): 0.31% | RRT 0.50 (18 Month): 0.07% | RRT 0.56 (18 Month): 0.19% | RRT 0.68 (18 Month): 0.07% | RRT 3.1-3.2 (18 Month): 0.19% | RRT 3.54 (18 Month): 0.05% | Total Related Substances (18 Month): 2% | pH (18 Month): 7.3 | (DACH) Pt-diaquo (~RRT 0.3) (24 Month): 0.17% | (DACH) Pt-monoaquo (~RRT 0.7) (24 Month): 0.82% | Assay (Potency) (24 Month): 97.1% | PT-112 Dimer (~RRT 4.0) (24 Month): 0.31% | RRT 0.46 (24 Month): 0.06% | RRT 0.50 (24 Month): 0.22% | RRT 0.56 (24 Month): 0.09% | RRT 0.68 (24 Month): 0.05% | RRT 3.1-3.2 (24 Month): 0.22% | RRT 3.54 (24 Month): 0.11% | Total Related Substances (24 Month): 2% | pH (24 Month): 7.2 | Particulate Matter (Light Obscuration) (24 Month, first value): 41 particles per container | Particulate Matter (Light Obscuration) (24 Month, second value): 12 particles per container | (DACH) Pt-diaquo (~RRT 0.3) (30 Month): 0.14% | (DACH) Pt-monoaquo (~RRT 0.7) (30 Month): 0.96% | Assay (Potency) (30 Month): 98.2% | PT-112 Dimer (~RRT 4.0) (30 Month): 0.33% | RRT 0.50 (30 Month): 0.17% | RRT 0.56 (30 Month): 0.19% | RRT 0.68 (30 Month): 0.08% | RRT 3.1-3.2 (30 Month): 0.31% | RRT 3.54 (30 Month): 0.10% | Total Related Substances (30 Month): 2% | pH (30 Month): 7.2 | Particulate Matter (Light Obscuration) (30 Month, first value): 62 particles per container | Particulate Matter (Light Obscuration) (30 Month, second value): 6 particles particles per container | (DACH) Pt-diaquo (~RRT 0.3) (36 Month): 0.12% | (DACH) Pt-monoaquo (~RRT 0.7) (36 Month): 1.16% | Assay (Potency) (36 Month): 97.8% | PT-112 Dimer (~RRT 4.0) (36 Month): 0.36% | RRT 0.46 (36 Month): 0.07% | RRT 0.50 (36 Month): 0.23% | RRT 0.56 (36 Month): 0.11% | RRT 0.68 (36 Month): 0.09% | RRT 3.1-3.2 (36 Month): 0.30% | RRT 3.54 (36 Month): 0.14% | Total Related Substances (36 Month): 3% | pH (36 Month): 7.2 | (DACH) Pt-diaquo (~RRT 0.3) (Initial): 0.16% | (DACH) Pt-monoaquo (~RRT 0.7) (Initial): 0.98% | Assay (Potency) (Initial): 99.8% | PT-112 Dimer (~RRT 4.0) (Initial): 0.19% | RRT 0.56 (Initial): 0.13% | RRT 0.68 (Initial): 0.05% | Total Related Substances (Initial): 2% | pH (Initial): 7.2 | Particulate Matter (Light Obscuration) (Initial, first value): 219 particles per container | Particulate Matter (Light Obscuration) (Initial, second value): 11 particles per container
